Read-outs that look alike come from different tables or passages of the source. One block for each compound: values may come before it.
Tests used:
[1] = 13-membered ring
CFTR [2] = target: T1, CFTR (Homo sapiens, UniProt P13569, DEL508-508); assay: HBE assay: Ussing chamber assay of CFTR-mediated short-circuit currents; assay type: cell-based; details: Table 11
T1 construct: endogenous in cells; host or cells: primary human bronchial epithelial cells from CF subjects (F508del/MF-HBE), differentiated at air-liquid interface
Summary of the method: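 CFTR-mediated Isc (μA/cm²) equals the peak response to apical 20 μM forskolin minus the residual after a 20 μM each BPO/GlyH-101/CFTR inhibitor 172 cocktail, recorded in Ussing chambers at Vhold 0 mV, 37 °C, pH 7.4, with 30 μM apical amiloride. Cells were F508del/MF HBE cultures preincubated 18-24 h with corrector (concentration range or 10 μM) plus 1 μM ivacaftor in 20% human serum.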

[3] = amide bond, 13-membered ring, DMF
CFTR [4] = target: CFTR (Homo sapiens, UniProt P13569); assay: Membrane potential dye, Enteroid Assay A; assay type: cell-based; details: Table 6; for Ent. A Max Activity: chloride transport as % of triple combination control (Enteroid Assay A); for EC50: human enteroid cells, 18-24 hours, acute 10 μM forskolin and 300 nM ivacaftor, read-out: Ent. A EC50
Summary of the method: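 % Activity: chloride transport relative to a 3 μM/3 μM corrector pair plus 300 nM acute potentiator control. Primary human enteroid cells, 18-24 h compound exposure at 37 °C; membrane potential dye (methyl oxonol) fluorescence over 15 min after forskolin (10 μM)/IBMX (100 μM)/Compound III (300 nM) stimulation in chloride-free buffer.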

F508del = target: T2, F508del (Homo sapiens, UniProt P13569, DEL508-508); assay: 3T3 assay: membrane potential optical assay for F508del correction; assay type: cell-based; details: Table 6, F508del NIH 3T3 cells; for Emax: NIH3T3, compared to lumacaftor in combination with acutely added 300 nM Ivacaftor, read-out: 3T3 Max Activity; for EC50: 18-24 hours at 37° C., forskolin, acutely added 300 nM Ivacaftor
T2 construct: expressed in transfected cells
Summary of the method: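 NIH 3T3 mouse fibroblasts stably expressing F508del incubated with corrector compounds across a concentration range for 16-24 hours at 37° C, then loaded with voltage-sensing redistribution dye. Response is FLIPR membrane potential change on forskolin activation with a chloride gradient (chloride-free gluconate bath, HEPES pH 7.4).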

Chain of CFTR (Homo sapiens, UniProt P13569) (P13569 with tags, fused parts or gaps DEL508-508): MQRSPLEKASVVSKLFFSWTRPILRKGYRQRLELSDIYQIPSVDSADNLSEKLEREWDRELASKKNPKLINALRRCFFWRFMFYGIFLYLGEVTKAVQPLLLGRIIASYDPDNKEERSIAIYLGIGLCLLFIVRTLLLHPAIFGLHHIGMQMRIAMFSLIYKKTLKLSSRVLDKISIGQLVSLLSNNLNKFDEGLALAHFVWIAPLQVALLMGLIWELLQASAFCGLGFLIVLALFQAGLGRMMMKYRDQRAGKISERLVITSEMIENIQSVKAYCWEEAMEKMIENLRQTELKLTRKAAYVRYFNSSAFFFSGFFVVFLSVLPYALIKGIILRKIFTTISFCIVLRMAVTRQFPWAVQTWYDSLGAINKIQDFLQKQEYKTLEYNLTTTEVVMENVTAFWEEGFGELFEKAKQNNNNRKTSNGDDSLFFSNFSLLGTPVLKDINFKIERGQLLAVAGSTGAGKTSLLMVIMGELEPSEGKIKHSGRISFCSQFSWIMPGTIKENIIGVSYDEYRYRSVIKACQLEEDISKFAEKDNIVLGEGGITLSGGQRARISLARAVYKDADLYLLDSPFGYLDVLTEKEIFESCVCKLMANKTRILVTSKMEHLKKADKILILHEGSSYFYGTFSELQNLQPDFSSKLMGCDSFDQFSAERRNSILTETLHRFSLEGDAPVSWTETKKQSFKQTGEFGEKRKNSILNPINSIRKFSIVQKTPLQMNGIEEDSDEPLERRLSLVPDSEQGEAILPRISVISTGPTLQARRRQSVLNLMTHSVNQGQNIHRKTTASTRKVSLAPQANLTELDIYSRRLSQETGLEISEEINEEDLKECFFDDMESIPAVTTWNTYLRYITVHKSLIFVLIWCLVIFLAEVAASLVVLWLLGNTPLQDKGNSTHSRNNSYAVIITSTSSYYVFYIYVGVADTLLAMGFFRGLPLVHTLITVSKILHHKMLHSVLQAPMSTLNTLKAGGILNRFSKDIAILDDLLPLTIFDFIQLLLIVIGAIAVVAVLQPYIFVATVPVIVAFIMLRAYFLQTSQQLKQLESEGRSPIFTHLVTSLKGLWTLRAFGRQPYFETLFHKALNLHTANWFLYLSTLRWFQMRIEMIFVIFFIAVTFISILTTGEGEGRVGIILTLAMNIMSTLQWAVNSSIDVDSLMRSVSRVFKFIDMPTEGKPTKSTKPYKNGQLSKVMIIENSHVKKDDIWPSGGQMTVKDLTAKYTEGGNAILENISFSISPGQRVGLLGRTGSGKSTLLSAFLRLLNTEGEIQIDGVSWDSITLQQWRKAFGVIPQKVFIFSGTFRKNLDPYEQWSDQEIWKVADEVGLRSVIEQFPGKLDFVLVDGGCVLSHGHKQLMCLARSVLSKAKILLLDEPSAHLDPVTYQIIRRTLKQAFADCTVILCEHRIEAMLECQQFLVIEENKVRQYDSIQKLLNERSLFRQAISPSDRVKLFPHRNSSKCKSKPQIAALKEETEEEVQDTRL
T2 sequence (P13569 with tags, fused parts or gaps DEL508-508): as above
T1 sequence (P13569 with tags, fused parts or gaps DEL508-508): as above

SMILES: Cc1cccc(C)c1-c1cc2nc(n1)NS(=O)(=O)c1cccc(c1)CN(C(=O)OC(C)(C)C)[C@H](CC(C)C)CO2
- ring closure, isolated yield ([1]; from Cc1cccc(C)c1-c1cc(OC[C@@H](CC(C)C)NC(=O)OC(C)(C)C)nc(NS(=O)(=O)c2cccc(COS(C)(=O)=O)c2)n1, amine bond, NaH, DMF, 3.92 mM, 25.0 °C): 50%

SMILES: Cc1cccc(C)c1-c1cc2nc(n1)NS(=O)(=O)c1cccc(c1)C(=O)N(Cc1cncc(Cl)n1)[C@H](CC(C)(C)C)CO2
- ring closure, isolated yield ([1]; from Cc1cccc(C)c1-c1cc(OC[C@@H](CC(C)(C)C)NCc2cncc(Cl)n2)nc(NS(=O)(=O)c2cccc(C(=O)O)c2)n1, amide bond, CDMT/NMM, DMF, 12.4 mM, 25.0 °C, 16.5 h): 56%

SMILES: Cc1cccc(C)c1-c1cc2nc(n1)NS(=O)(=O)c1cccc(c1)C(=O)N(Cc1cncc(N(C)C3CCC3)n1)C1(CCC(C)(C)C1)CO2 (stereo not shown)
- ring closure, isolated yield ([1]; from Cc1cccc(C)c1-c1cc(OCC2(NCc3cncc(N(C)C4CCC4)n3)CCC(C)(C)C2)nc(NS(=O)(=O)c2cccc(C(=O)O)c2)n1, amide bond, CDMT/NMM, DMF, 18.1 mM, 120.0 h): 36%

SMILES: Cc1cccc(C)c1-c1cc2nc(n1)NS(=O)(=O)c1cccc(c1)C(=O)N(Cc1cncc(Cl)n1)[C@H](COC1CC1)CO2
- ring closure, isolated yield ([1]; from Cc1cccc(C)c1-c1cc(OC[C@@H](COC2CC2)NCc2cncc(Cl)n2)nc(NS(=O)(=O)c2cccc(C(=O)O)c2)n1, amide bond, CDMT/NMM, DMF, 12.9 mM, 21.0 h): 97%

SMILES: Cc1cccc(C)c1-c1cc2nc(n1)NS(=O)(=O)c1cccc(c1)C(=O)N(Cc1cncc(N3CCCC[C@H]3C)n1)C(CCC(C)(C)F)CO2 (stereo partly shown)
- ring closure, isolated yield ([1]; from Cc1cccc(C)c1-c1cc(OCC(CCC(C)(C)F)NCc2cncc(N3CCCC[C@H]3C)n2)nc(NS(=O)(=O)c2cccc(C(=O)O)c2)n1, amide bond, CDMT/NMM, DMF, 19.8 mM, 16.0 h): 54%

SMILES: COCN1c2nc(cc(-c3c(C)cccc3C)n2)OC[C@@H](CC(C)(C)C)NC(=O)c2cccc(c2)S1(=O)=O
- ring closure, isolated yield ([1]; from COCN(c1nc(OC[C@H](N)CC(C)(C)C)cc(-c2c(C)cccc2C)n1)S(=O)(=O)c1cccc(C(=O)O)c1, amide bond, HATU/DIEA, DMF, 107.6 mM, 0.33 h): 39%

SMILES: Cc1cccc(C)c1-c1cc2nc(n1)NS(=O)(=O)c1cccc(c1)C(=O)N(CCC1CCN(C(=O)OC(C)(C)C)CC1)[C@H](CC(C)C)CO2
- ring closure, isolated yield ([1]; from Cc1cccc(C)c1-c1cc(OC[C@@H](CC(C)C)NCCC2CCN(C(=O)OC(C)(C)C)CC2)nc(NS(=O)(=O)c2cccc(C(=O)O)c2)n1, amide bond, HATU/TEA, DMF, 125.0 mM, 25.0 °C, 1.0 h, 2 steps): 94%

SMILES: Cc1cccc(C)c1-c1cc2nc(n1)NS(=O)(=O)c1cccc(c1)C(=O)N(CC1CC3(CCN(C(=O)OC(C)(C)C)CC3)C1)[C@H](CC(C)C)CO2
- ring closure, isolated yield ([1]; from Cc1cccc(C)c1-c1cc(OC[C@@H](CC(C)C)NCC2CC3(CCN(C(=O)OC(C)(C)C)CC3)C2)nc(NS(=O)(=O)c2cccc(C(=O)O)c2)n1, amide bond, HATU/DIEA, DMF, 9.3 mM, 25.0 °C, 2.0 h, 2 steps): 33%

SMILES: CCC(C)(C)CC1COc2cc(-c3c(C)cccc3C)nc(n2)NS(=O)(=O)c2cccc(c2)C(=O)N1Cc1cncc(N(C)C2CCC2)n1 (stereo not shown)
- ring closure, isolated yield ([1]; from CCC(C)(C)CC(COc1cc(-c2c(C)cccc2C)nc(NS(=O)(=O)c2cccc(C(=O)O)c2)n1)NCc1cncc(N(C)C2CCC2)n1, amide bond, CDMT/NMM, DMF, 19.5 mM, 16.2 h): 65%

SMILES: Cc1cccc(C)c1-c1cc2nc(n1)NS(=O)(=O)c1cccc(c1)C(=O)N(Cc1cccc(NC(=O)OC(C)(C)C)n1)[C@H](CC(C)(C)C)CO2
- ring closure, isolated yield ([1]; from Cc1cccc(C)c1-c1cc(OC[C@@H](CC(C)(C)C)NCc2cccc(NC(=O)OC(C)(C)C)n2)nc(NS(=O)(=O)c2cccc(C(=O)O)c2)n1, amide bond, HATU/DIEA, DMF, 16.0 h, 2 steps): 31%

SMILES: Cc1cccc(C)c1-c1cc2nc(n1)NS(=O)(=O)c1cccc(c1)C(=O)N(CCC1(C(F)(F)F)CC1)[C@@H]1CN(C(=O)OC(C)(C)C)C[C@H]1O2
- ring closure, isolated yield ([1]; from Cc1cccc(C)c1-c1cc(O[C@@H]2CN(C(=O)OC(C)(C)C)C[C@H]2NCCC2(C(F)(F)F)CC2)nc(NS(=O)(=O)c2cccc(C(=O)O)c2)n1, amide bond, COMU/DIEA, DMF, 10.6 mM, 72.0 h): 92%

SMILES: Cc1cccc(C)c1-c1cc2nc(n1)NS(=O)(=O)c1cccc(c1)C(=O)N(Cc1ccc3c(I)cn(C)c3n1)[C@H](CC(C)(C)C)CO2
- ring closure, isolated yield ([1]; from Cc1cccc(C)c1-c1cc(OC[C@@H](CC(C)(C)C)NCc2ccc3c(I)cn(C)c3n2)nc(NS(=O)(=O)c2cccc(C(=O)O)c2)n1, amide bond, 2-chloro-1-methylpyridinium iodide/DIEA, DMF, 35.1 mM, 16.0 h): 61%

- EC50 (CFTR [2]; read-out: HBE EC50): < 1000 nM
- Emax (CFTR [2]; read-out: HBE Max Activity (%)): > 60%
SMILES: Cc1cccc(C)c1-c1cc2nc(n1)NS(=O)(=O)c1cccc(c1)C(=O)N(Cc1ncc(N3CC(C)(C)C3)cn1)[C@H](CC(C)(C)C)CO2 [Compound 331]
- ring closure, isolated yield ([1]; from Cc1cccc(C)c1-c1cc(OC[C@@H](CC(C)(C)C)NCc2ncc(N3CC(C)(C)C3)cn2)nc(NS(=O)(=O)c2cccc(C(=O)O)c2)n1, amide bond, T3P/DIEA, MeCN, 34.5 mM, 0.0 °C, 2.5 h): 53%

SMILES: Cc1cccc(C)c1-c1cc2nc(n1)NS(=O)(=O)c1cccc(c1)C(=O)N(CCCO[Si](C)(C)C(C)(C)C)[C@H](CC(C)C)CO2
- ring closure, isolated yield ([1]; from Cc1cccc(C)c1-c1cc(OC[C@@H](CC(C)C)NCCCO[Si](C)(C)C(C)(C)C)nc(NS(=O)(=O)c2cccc(C(=O)O)c2)n1, amide bond, COMU/DIEA, DMF, 19.9 mM, 22.0 h): 43%

- Ent. A Max Activity (CFTR [4]): +++ (+++ is >60%)
- EC50 (CFTR [4]): < 1000 nM
- Emax (F508del): > 60%
- EC50 (F508del): < 1000 nM
SMILES: Cc1cccc(C)c1-c1cc2nc(n1)NS(=O)(=O)c1cccc(c1)C(=O)N(CC(C)C)CCO2 [Compound 4, 6-(2,6-Dimethylphenyl)-12-isobutyl-2,2-dioxo-9-oxa-2λ^6-thia-3,5,12,19-tetrazatricyclo[12.3.1.14,8]nonadeca-1(18),4(19),5,7,14,16-hexaen-13-one]
- ring closure, yield after HPLC ([3]; from Cc1cccc(C)c1-c1cc(OCCNCC(C)C)nc(NS(=O)(=O)c2cccc(C(=O)O)c2)n1, HATU/TEA, 91.6 mM, 0.5 h): 48%

SMILES: Cc1cccc(C)c1-c1cc2nc(n1)NS(=O)(=O)c1cccc(c1)C(=O)N(Cc1cncc(Cl)n1)[C@H](CC1CCCCC1)CO2
- ring closure, isolated yield ([1]; from Cc1cccc(C)c1-c1cc(OC[C@@H](CC2CCCCC2)NCc2cncc(Cl)n2)nc(NS(=O)(=O)c2cccc(C(=O)O)c2)n1, amide bond, CDMT/NMM, DMF, 20.4 mM, 16.2 h): 73%

SMILES: Cc1cccc(C)c1-c1cc2nc(n1)NS(=O)(=O)c1cccc(c1)C(=O)N(Cc1ccc3cc(I)n(C)c3n1)[C@H](CC(C)(C)C)CO2
- ring closure, isolated yield ([1]; from Cc1cccc(C)c1-c1cc(OC[C@@H](CC(C)(C)C)NCc2ccc3cc(I)n(C)c3n2)nc(NS(=O)(=O)c2cccc(C(=O)O)c2)n1, amide bond, 2-chloro-1-methylpyridinium iodide/DIEA, DMF, 41.5 mM, 16.0 h): 72%

- Ent. A Max Activity (CFTR [4]): +++ (+++ is >60%)
- EC50 (CFTR [4]): < 1000 nM
- Emax (F508del): > 60%
- EC50 (F508del): < 1000 nM
SMILES: Cc1cccc(C)c1-c1cc2nc(n1)NS(=O)(=O)c1cccc(c1)C(=O)N(CCC1(C(F)(F)F)CC1)[C@H](CC(C)C)CO2 [Compound 37, (11R)-6-(2,6-Dimethylphenyl)-11-(2-methylpropyl)-12-{2-[1-(trifluoromethyl)cyclopropyl]ethyl}-9-oxa-2λ^6-thia-3,5,12,19-tetraazatricyclo[12.3.1.14,8]nonadeca-1(17),4(19),5,7,14(18),15-hexaene-2,2,13-trione]
- ring closure, yield after HPLC ([3]; from Cc1cccc(C)c1-c1cc(OC[C@@H](CC(C)C)NCCC2(C(F)(F)F)CC2)nc(NS(=O)(=O)c2cccc(C(=O)O)c2)n1, HATU/DIEA, 25.2 mM, 25.0 °C, 1.0 h): 37%

Reference: US20240150377A1, “MODULATORS OF CYSTIC FIBROSIS TRANSMEMBRANE CONDUCTANCE REGULATOR” (VERTEX PHARMACEUTICALS INCORPORATED, priority 2020, published 2024)
